# ChEMBL document CHEMBL1145676, “Isolation of two flavonoids from Tanacetum microphyllum as PMA-induced ear edema inhibitors” (1997)
# What was measured:
# Type in all cases: functional
# Mus musculus [1] = assay: Inhibition of PMA-induced ear edema in Swiss mouse at 3 mg/ear after 1 hr
# Mus musculus [2] = assay: Inhibition of PMA-induced ear edema in Swiss mouse at 3 mg/ear after 3 hrs
# Mus musculus [3] = assay: Inhibition of PMA-induced ear edema in Swiss mouse at 3 mg/ear after 5 hrs
Structure (SMILES),inhibition (INH) (Mus musculus [1]),inhibition (INH) (Mus musculus [2]),inhibition (INH) (Mus musculus [3])
COc1ccc(-c2oc3cc(O)cc(O)c3c(=O)c2OC)cc1 [ERMANIN],95.1%,71.1%,78.3%
COc1ccc(-c2oc3cc(O)c(OC)c(O)c3c(=O)c2OC)cc1 [SANTIN],80.5%,76.3%,81.1%
COc1ccc2c(c1)c(CC(=O)O)c(C)n2C(=O)c1ccc(Cl)cc1 [INDOMETHACIN],47.3%,38.6%,51.2%
